Data on 26 compounds can be found in US11325900B2, “5-(pyrimidin-4-yl)thiazol-2-yl urea derivatives as therapeutic agents” (AUCENTRA HOLDINGS PTY LTD, priority 2018, dated 2022).

Bounds are passed on as bounds.

One assay deals with T1, CDK8/CycC (Homo sapiens, UniProt P49336).
T1 construct: purchased ProQinase GmbH, Freiburg, Germany
The assay can be described thus: Radiometric protein kinase assay (33PanQinase Activity Assay, ProQinase). Format: biochemical. Particulars: 1.0 μM ATP, 1.0 μg/50 μL substrate RBER-IRStide, duplicate measurements, read-out: CDK8 Kinase inhibition IC50. On the procedure:
The kinase activity of CDK8/CycC was measured using a radiometric protein kinase assay (33PanQinase® Activity Assay) by ProQinase GmbH, Freiburg, Germany, with the protocols shown at www.proqinase.com/sites/default/files/public/uploads/WildtypeProfiler/radiometric_assay_v05_2012_manual.pdf. IC50 determination (8.3 nM with 1.0 μM ATP and 1.0 μg/50 μL of substrate RBER-IRStide) was performed as duplicate measurements and calculated using Quattro Workflow V3.1.1 (Quattro Research GmbH, Germany). Apparent inhibition constants (Ki) values were calculated from Km (ATP) and IC50 values for the respective kinases.

A further assay relates to MV-4-11. The assay can be described thus: Cell viability assay (resazurin, leukemia cell lines), 72 h growth inhibition. It is filed as cell-based. Particulars: Homo sapiens, MV4-11, MV-4-11 cells. An excerpt: (§1) Compounds from Example 1 may be subjected to a standard MTT (3-(4,5-dimethylthiazol-2-yl)-2,5-diphenyltetrazolium bromide) and resazurin assays on solid tumour cell lines and leukemia cell lines, respectively, as previously reported (Wang S et al., J Med Chem 47:1662-1675, 2004 and Diab S e al. CheMedChem 9:962-972, 2014). Compound concentrations required to inhibit 50% of cell growth (GI50) can be calculated using non-linear regression analysis.
Background: Resazurin is reduced to fluorescent resorufin, in cell work by metabolically active cells.

Another assay concerns HCT-116. As to the kind of experiment: Cell viability assay (MTT, solid tumour cell lines), 72 h growth inhibition. It is filed as cell-based. Particulars: Homo sapiens, HCT-116 cells.
From the text: as §1

T1 sequence (P49336 whole entry): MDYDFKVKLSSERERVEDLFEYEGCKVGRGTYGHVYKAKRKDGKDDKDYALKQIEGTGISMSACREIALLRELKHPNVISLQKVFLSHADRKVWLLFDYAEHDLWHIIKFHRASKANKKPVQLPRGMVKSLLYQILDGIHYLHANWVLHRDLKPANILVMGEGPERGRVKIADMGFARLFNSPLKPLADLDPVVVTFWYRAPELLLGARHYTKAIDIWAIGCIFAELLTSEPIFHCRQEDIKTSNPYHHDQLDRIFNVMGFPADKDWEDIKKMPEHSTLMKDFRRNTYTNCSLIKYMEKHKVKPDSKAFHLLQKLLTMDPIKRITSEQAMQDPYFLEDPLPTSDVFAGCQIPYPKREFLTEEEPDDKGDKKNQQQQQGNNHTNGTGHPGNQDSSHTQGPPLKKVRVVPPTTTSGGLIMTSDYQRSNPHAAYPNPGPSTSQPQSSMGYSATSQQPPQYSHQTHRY
T1 sequence (P24863 whole entry partner): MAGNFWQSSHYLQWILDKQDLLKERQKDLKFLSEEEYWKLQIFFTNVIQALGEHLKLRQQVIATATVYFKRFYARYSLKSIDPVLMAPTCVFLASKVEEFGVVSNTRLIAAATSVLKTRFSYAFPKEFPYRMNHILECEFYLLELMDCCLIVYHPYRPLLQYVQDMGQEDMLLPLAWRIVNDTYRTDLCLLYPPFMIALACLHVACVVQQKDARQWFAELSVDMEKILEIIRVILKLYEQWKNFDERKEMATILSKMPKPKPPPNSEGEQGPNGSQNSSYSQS

`CNc1nccc(-c2sc(NC(=O)Nc3cccc(Cl)c3)nc2C)n1` [Compound 11, 1-(3-Chlorophenyl)-3-(4-methyl-5-(2-(methylamino)pyrimidin-4-yl)thiazol-2-yl)urea]: the IC50 (commonly the concentration that inhibits the measured activity by half) at CDK8/CycC was determined as 33 nM. Further, the GI50 (in general, the concentration that inhibits growth by half) in the assay with MV-4-11 was 1480 ± 1320 nM; in the assay on HCT-116, 693 ± 30 nM.
On the same counts, the results for `CNc1nccc(-c2sc(NC(=O)Nc3cccc(OC(F)(F)F)c3)nc2C)n1` [Compound 18, 1-(4-Methyl-5-(2-(methylamino)-pyrimidin-4-yl)thiazol-2-yl)-3-(3-(trifluoromethoxy)phenyl)urea] are 25 nM, 5000 ± 630 nM and 4290 ± 523 nM.
As to `CNc1nccc(-c2sc(NC(=O)Nc3cccc(Br)c3)nc2C)n1` [Compound 12, 1-(3-Bromophenyl)-3-(4-methyl-5-(2-(methylamino)pyrimidin-4-yl)thiazol-2-yl)urea], the half-inhibitory concentration (IC50) on CDK8/CycC worked out at 7 nM. In addition, the GI50 with MV-4-11 was determined as 2110 ± 1640 nM; with HCT-116, 6400 ± 270 nM.
The matching figures for `CNc1nccc(-c2sc(NC(=O)Nc3ccc(C(F)(F)F)c(C(F)(F)F)c3)nc2C)n1` [Compound 27, 1-(3,4-Bis(trifluoromethyl)phenyl)-3-(4-methyl-5-(2-(methylamino)-pyrimidin-4-yl)thiazol-2-yl)urea]: 53 nM, 4160 ± 800 nM and 5640 ± 320 nM.
Take `CNc1nccc(-c2sc(NC(=O)Nc3ccc(CN4CCN(C)CC4)c(C(F)(F)F)c3)nc2C)n1` [Compound 32, 1-(4-Methyl-5-(2-(methylamino)-pyrimidin-4-yl)thiazol-2-yl)-3-(4-((4-methylpiperazin-1-yl)methyl)-3-(trifluoromethyl)phenyl)urea]: the IC50 on CDK8/CycC is 12 nM. Besides, the concentration for 50% growth inhibition (GI50) in the assay with MV-4-11 was below 1 nM; in the assay with HCT-116, 366 ± 90 nM.
In the case of `Cc1nc(NC(=O)Nc2cccc(C(F)(F)F)c2)sc1-c1ccnc(N(C)C)n1` [Compound 46, 1-(5-(2-(Dimethylamino)pyrimidin-4-yl)-4-methylthiazol-2-yl)-3-(3-(trifluoromethyl)phenyl)urea], on CDK8/CycC, the IC50 amounted to 41 nM. For the same compound, the concentration for 50% growth inhibition (GI50) was 5500 ± 490 nM with MV-4-11 and 35000 ± 11800 nM in the assay with HCT-116.
On the same counts, the results for `CNc1nccc(-c2sc(NC(=O)Nc3ccccc3)nc2C)n1` [Compound 1, 1-(4-Methyl-5-(2-(methylamino)pyrimidin-4-yl)thiazol-2-yl)-3-phenylurea] are 36 nM, 639 ± 120 nM and 1510 ± 60 nM.
For the compound `CNc1nccc(-c2sc(NC(=O)Nc3cccc(S(=O)(=O)C(F)(F)F)c3)nc2C)n1` [Compound 23, 1-(4-Methyl-5-(2-(methylamino)pyrimidin-4-yl)-thiazol-2-yl)-3-(3-((trifluoromethyl)-sulfonyl)phenyl)urea], the IC50 on CDK8/CycC was found to be 26 nM. Besides, the GI50 with MV-4-11 was found to be 3170 ± 530 nM; with HCT-116, 4960 ± 120 nM.
On the same counts, the results for `CCN1CCN(Cc2ccc(NC(=O)Nc3nc(C)c(-c4ccnc(NC)n4)s3)cc2C(F)(F)F)CC1` [Compound 33, 1-(4-((4-Ethylpiperazin-1-yl)methyl)-3-(trifluoromethyl)phenyl)-3-(4-methyl-5-(2-(methylamino)-pyrimidin-4-yl)thiazol-2-yl)urea] are 10 nM, below 1 nM and 457 ± 30 nM.
Consider `CNc1nccc(-c2sc(NC(=O)Nc3ccc(Cl)cc3)nc2C)n1` [Compound 43], for which the 50% inhibitory concentration (IC50) at CDK8/CycC amounted to 9 nM. Also, the figures for the GI50 in the assay with MV-4-11 and in the assay on HCT-116 were 1520 ± 800 nM and 5960 ± 440 nM, respectively.
Regarding `CNc1nccc(-c2sc(NC(=O)Nc3ccccc3OC)nc2C)n1` [Compound 4, 1-(2-Methoxyphenyl)-3-(4-methyl-5-(2-(methylamino)pyrimidin-4-yl)thiazol-2-yl)urea], at CDK8/CycC, the IC50 worked out at 49 nM. Besides, the values for the 50% growth inhibitory concentration (GI50) with MV-4-11 and with HCT-116 were 457 ± 180 nM and 537 ± 140 nM, respectively.
`CNc1nccc(-c2sc(NC(=O)Nc3ccc(Cl)c(C(F)(F)F)c3)nc2C)n1` [Compound 24, 1-(4-Chloro-3-(trifluoromethyl)-phenyl)-3-(4-methyl-5-(2-(methylamino)-pyrimidin-4-yl)thiazol-2-yl)urea]: the IC50 at CDK8/CycC was 12 nM. For the same compound, the GI50 stood at 3480 ± 9530 nM in the assay with MV-4-11 and 7250 ± 310 nM with HCT-116.
With `CNc1nccc(-c2sc(NC(=O)Nc3cc(C(F)(F)F)ccc3C(F)(F)F)nc2C)n1` [Compound 9, 1-(2,5-Bis(trifluoromethyl)phenyl)-3-(4-methyl-5-(2-(methylamino)-pyrimidin-4-yl)thiazol-2-yl)urea], the IC50 at CDK8/CycC was 41 nM. Moreover, the GI50 in the assay with MV-4-11 worked out at 526 ± 40 nM; in the assay with HCT-116, 519 ± 160 nM.
On the same counts, the results for `Cc1nc(NC(=O)Nc2cccc(Cl)c2)sc1-c1ccnc(N(C)C)n1` [Compound 47, 1-(3-Chlorophenyl)-3-(5-(2-(dimethylamino)pyrimidin-4-yl)-4-methylthiazol-2-yl)urea] are 38 nM, 5280 ± 150 nM and 5770 ± 420 nM.
On the same counts, the results for `Cc1nc(NC(=O)Nc2cccc(C(F)(F)F)c2)sc1-c1ccnc(N)n1` [Compound 51, 1-(5-(2-Aminopyrimidin-4-yl)-4-methylthiazol-2-yl)-3-(3-(trifluoromethyl)phenyl)urea] are 60 nM, 5710 ± 590 nM and 4320 ± 410 nM.
In the case of `CNc1nccc(-c2sc(NC(=O)Nc3ccc(C(F)(F)F)c(F)c3)nc2C)n1` [Compound 28, 1-(3-Fluoro-4-(trifluoromethyl)phenyl)-3-(4-methyl-5-(2-(methylamino)-pyrimidin-4-yl)thiazol-2-yl)urea], the half-inhibitory concentration (IC50) at CDK8/CycC amounted to 26 nM. The concentration for 50% growth inhibition (GI50) in the assay on MV-4-11 stood at 3280 ± 640 nM; in the assay with HCT-116, 772 ± 250 nM.
The matching figures for `CNc1nccc(-c2sc(NC(=O)Nc3cccc(C(C)C)c3)nc2C)n1` [Compound 17, 1-(3-Isopropylphenyl)-3-(4-methyl-5-(2-(methylamino)pyrimidin-4-yl)thiazol-2-yl)urea]: 15 nM, 3510 ± 790 nM and 5970 ± 723 nM.
Turning to `CNc1nccc(-c2sc(NC(=O)Nc3cccc(SC(F)(F)F)c3)nc2C)n1` [Compound 22, 1-(4-Methyl-5-(2-(methylamino)-pyrimidin-4-yl)thiazol-2-yl)-3-(3-((trifluoromethyl)thio)phenyl)urea], the IC50 at CDK8/CycC stood at 20 nM. Moreover, the 50% growth inhibitory concentration (GI50) is 4630 ± 1560 nM with MV-4-11 and 4310 ± 750 nM in the assay on HCT-116.
`Cc1ccc(NC(=O)Nc2nc(C)c(-c3ccnc(N(C)C)n3)s2)cc1Cl` [Compound 48, 1-(3-Chloro-4-methylphenyl)-3-(5-(2-(dimethylamino)pyrimidin-4-yl)-4-methylthiazol-2-yl)urea]: the IC50 at CDK8/CycC is 46 nM. Further, the 50% growth inhibitory concentration (GI50) in the assay with MV-4-11 is 5910 ± 180 nM; with HCT-116 it was 8340 ± 600 nM.
For `CNc1nccc(-c2sc(NC(=O)Nc3cccc(C(F)(F)F)c3)nc2C)n1` [Compound 10, 1-(4-Methyl-5-(2-(methylamino)-pyrimidin-4-yl)thiazol-2-yl)-3-(3-(trifluoromethyl)phenyl)urea], the IC50 at CDK8/CycC turned out to be 10 nM. Also, the concentration for 50% growth inhibition (GI50) with MV-4-11 came out at 870 ± 360 nM; in the assay with HCT-116 it was 510 ± 30 nM.
Turning to `CNc1nccc(-c2sc(NC(=O)Nc3ccccc3F)nc2C)n1` [Compound 3, 1-(2-Fluorophenyl)-3-(4-methyl-5-(2-(methylamino)pyrimidin-4-yl)thiazol-2-yl)urea], the IC50 on CDK8/CycC is 42 nM. For the same compound, the values for the GI50 in the assay with MV-4-11 and with HCT-116 were 952 ± 200 nM and 1590 ± 60 nM, respectively.
Consider `CNc1nccc(-c2sc(NC(=O)Nc3cccc(C)c3)nc2C)n1` [Compound 13, 1-(4-Methyl-5-(2-(methylamino)pyrimidin-4-yl)thiazol-2-yl)-3-(m-tolyl)urea], for which the concentration for half-maximal inhibition (IC50) on CDK8/CycC was 6 nM. Also, the GI50 in the assay with MV-4-11 came to 3900 ± 1100 nM; in the assay with HCT-116, 2770 ± 210 nM.
For the compound `CNc1nccc(-c2sc(NC(=O)Nc3cccc([N+](=O)[O-])c3)nc2C)n1` [Compound 14, 1-(4-Methyl-5-(2-(methylamino)pyrimidin-4-yl)thiazol-2-yl)-3-(3-nitrophenyl)urea], on CDK8/CycC, the IC50 turned out to be 10 nM. Also, the GI50 in the assay on MV-4-11 was 585 ± 30 nM; in the assay with HCT-116, 5080 ± 820 nM.
In the case of `CNc1nccc(-c2sc(NC(=O)Nc3ccc(Cl)c(C)c3)nc2C)n1` [Compound 30, 1-(4-Chloro-3-methylphenyl)-3-(4-methyl-5-(2-(methylamino)-pyrimidin-4-yl)thiazol-2-yl)urea], the IC50 on CDK8/CycC was found to be 8 nM. The GI50 was 4390 ± 1020 nM in the assay with MV-4-11 and 2350 ± 3210 nM with HCT-116.
On the same counts, the results for `CNc1nccc(-c2sc(NC(=O)Nc3ccc(C)cc3)nc2C)n1` [Compound 44, 1-(4-Methyl-5-(2-(methylamino)pyrimidin-4-yl)thiazol-2-yl)-3-(p-tolyl)urea] are 7 nM, 2600 ± 460 nM and 2370 ± 50 nM.
The matching figures for `CNc1nccc(-c2sc(NC(=O)Nc3ccc(CN4CCOCC4)c(Cl)c3)nc2C)n1` [Compound 31, 1-(3-Chloro-4-(morpholinomethyl)phenyl)-3-(4-methyl-5-(2-(methylamino)-pyrimidin-4-yl)thiazol-2-yl)urea]: 22 nM, 945 ± 50 nM and 6830 ± 1010 nM.
